Experiment [1] deals with LSD1-induced activation of AR. Briefly: Transient transfection AR-dependent luciferase reporter assay in 293 cells (LSD1 + AR co-expression). The experiment is classed as cell-based. The conditions noted are these: R1881, 3×10^−3 M pargyline, 1×10^−3 M deprenyl, or 1×10^−4 M clorgyline for 18 hours, FIG. 4c. On the procedure:
(§1) 293 and CV-1 cells were cultured and transfected as described^12. LNCaP cells were cultured in phenol-red-free RPMI1640 supplemented with 10% double-stripped fetal calf serum (dsFCS) and transfected with Effectene (Qiagen). The following amounts per well were used: MMTV-LUC, ARE2X-TATA-LUC, ARE2X-TK-LUC, TK-LUC, TREp-LUC, β-RE-LUC, ERE2X-TATA-LUC, PSA-LUC, Slp-ARU-TATA-LUC 500 ng each, 25 ng expression plasmids for AR, PR, ERα, RARα, and TRβ; 500 to 700 ng expression plasmids for LSD1 1-174, LSD1 175-246, LSD1 247-852, LSD1Δ281-360, LSD1ΔAO, pSUPER-control, and pSUPER-LSD1; 100 to 700 ng expression plasmids for LSD1 were transfected per well. […] Luciferase activity was assayed as described^9. All experiments were repeated at least five times in duplicate.
(In general: A reporter such as luciferase makes a cellular process visible.)

For experiment [2], the system named is other nuclear receptors (PR, ERα, RARα, TRβ). Briefly: Reporter assays for other nuclear hormone receptors in 293 cells. It counts as cell-based. The following applies: pargyline, FIG. 10k. As to the method:
as §1

A further experiment relates to PSA gene. Briefly: qRT-PCR of endogenous PSA gene expression in LNCaP cells. The experiment is classed as cell-based, human. The following applies: pargyline, FIG. 4d. On the procedure:
DNAsel-treated RNA isolated using RNAwiz (Ambion) was used for reverse transcription. Quantitative PCR was performed in an ABI PRISM 7700 sequence detector. Product formation was detected by incorporation of SYBR Green I using ROX as a passive reference (ABgene). The expression ratios of the analyzed cDNAs were related to the normalized Cp of the housekeeping gene GAPDH in control and sample. The following primers were used: GAPDH: 5′-[…]-3′; 5′-[…]-3′; PSA: 5′-[…]-3′; 5′-[…]-3′. Statistical analysis for qPCR was performed by group-wise comparison based on PCR efficiencies and the mean crossing point deviation between sample and control group using Relative Expression Software Tool^19. Experiments were repeated and analysed three times.
In general terms: In qPCR the cycle at which signal appears reflects the starting amount.

The next experiment deals with T1, LSD1 (Homo sapiens, UniProt O60341).
T1 construct: endogenous in cells; host or cells: LNCaP cells
Nature of the experiment: Chromatin immunoprecipitation (ChIP) of histone methylation marks at the PSA promoter in LNCaP cells. The experiment is classed as cell-based. As to the method:
ChIP experiments were performed essentially as described^14. […] LNCaP cells were transfected three days before harvesting for ChIP with or without siRNA (Qiagen) following the manufacture's instructions. Immunoprecipitation was performed with specific antibodies (α-monoMeK9H3, α-diMeK9H3, α-triMeK9H3, α-monoMeK4H3, α-diMeK4H3, α-triMeK4H3, α-H3 (abcam), α-LSD1, and α-AR PG21 (Upstate Biotechnology) on GammaBind TMSepharose 4B (GE-Healthcare). For PCR, 1-5 μl out of 50 μl DNA extract was used. For Re-ChIP assays, immunoprecipitations were sequentially washed with TSE I, TSE II, buffer III, and TE^14. Complexes were eluted by incubation with 10 mM DTT at 37° C. for 30 min, diluted 50 times with dilution buffer^14 followed by a second immunoprecipitation with the indicated antibody. Primer sequences were as follows: exon 4, PSA (+3909/+4067) 5′-[…]-3′ and 5′-[…]-3′; middle, PSA (−2223/−1951) 5′-[…]-3′ and 5′-[…]-3′; PCR primers for ARE I+II (PSA (−459/−121)) and ARE III (PSA ([…])), GAPDH, and U6 have been previously described^7, 15, 16.

The mark [3] stands for this setting: R1881, PSA promoter, pargyline, FIG. 8.

The source of these data is US20090104196A1, “Antibodies For Use in Identifying and/or Scoring Prostate Cancer and Androgen Receptor-Dependent Gene Expression Control” (priority 2005, published 2009).

“Also recorded” adds a separate entry of the source.

For `C#CCN(C)[C@H](C)Cc1ccccc1` [deprenyl, (R)-(−)-N,2-dimethyl-N-2-propynylphenethylamine], the “LSD1-induced activation of AR” value in experiment [1] was “severely impair”.
Consider `C#CCN(C)CCCOc1ccc(Cl)cc1Cl` [clorgyline, N-methyl-N-propargyl-3-(2,4-dichlorophenoxy-)propylamine], for which the “LSD1-induced activation of AR” value in experiment [1] is given as “severely impair”.
Consider `C#CCN(C)Cc1ccccc1` [pargyline, N-methyl-N-2-propynylbenzylamine], for which the “activity of other nuclear receptors” value in experiment [2] is listed as “does not influence; also recorded: fails to block”. For the same compound, in experiment [1], the “LSD1-induced activation of AR” value is listed as “severely impair”. In the experiment with PSA gene, the “androgen-induced expression of the endogenous PSA gene” value is on record as “blocks”. The “androgen-induced expression of the endogenous PSA gene” value in the experiment on PSA gene (listed as Pargyline) is reported as “reduces”. The “demethylation of mono- and dimethyl H3-K9 during androgen-induced transcription” value on LSD1 (R1881, PSA promoter (ARE I+II), pargyline 18 hours, FIG. 3b) is given as “blocks”. In addition, the “methylation levels of trimethyl H3-K9” value at LSD1 (R1881, PSA promoter, pargyline, FIG. 3b) was “remain unchanged”. Besides, on LSD1 (setting [3]), the “methylation status of H3-K27” value is listed as “remain unchanged” and the “methylation status of H4-K20” value was “remain unchanged”. Besides, at LSD1 (in vivo ChIP, pargyline, FIG. 3b), the “methylation of histone H3 at lysine 4 (H3-K4)” value is reported as “not influenced”.
